From US11096930B2, “Substituted imidazopyridine compounds as inhibitors of indoleamine 2,3-dioxygenase and/or tryptophan-2,3-dioxygenase” (IOMet Pharma Ltd., priority 2016, dated 2021) come the findings set out here.

Each structure is given as a SMILES string.

For assay [1], the target named is T1, IDO1 (Homo sapiens (Human), UniProt P14902). In words: IDO1 HEK293 Cellular Assay. Format: cell-based. The note with it: HEK293 cells transfected with Flag-IDO1 vector; read-out: HEK293 Cell Assay, pIC50 (converted). On the procedure:
IDO1 HEK293 Cellular Assay
Compounds to be tested were serially diluted in ten 3-fold steps in DMSO starting from 10 mM DMSO stocks. Compound dilutions or DMSO alone were then dispensed from the dilution plate into a Greiner black 384-well assay plate (catalog #781086) using an Echo 550 acoustic liquid handler (Labcyte).
HEK293 cell pellets were resuspended to 5×10^5 cells/mL in complete HEK293 culture media (89% DMEM, 10% FBS, 1% penicilllin/streptomycin). Suspended cells (2 mL) were dispensed into each well of a 6-well Corning plate (Catalog #3516). Cells were allowed to attach and were incubated for 20 hours at 37 degrees Celsius in a 5% CO2 incubator. Flag-IDO1 vector (Genscript True ORF Gold, 2 ug) in 150 uL of Opti-MEM medium was added to each well of a Corning 24 well plate (Cat #3527) and incubated for 5 minutes at room temperature. To each well of the 24-well plate was added 150 μL Lipofectamine 2000 (Gibco) and the plate incubated at room temperature for 20-30 minutes. To each well of attached cells in the 6-well plate, 250 μL of the transfection mix from the 24-well plate was gently added to each well and IDO1 protein was allowed to express for 24-30 hours at 37 degrees Celsius in a 5% CO2 incubator.
Media was removed from the cells which were then washed with 2 mL Dulbecco's phosphate-buffered saline (DPBS). After removal of DPBS, 0.5 mL of TrypLE (Gibco) was added and incubated at 5 minutes until cells lift from the surface of the wells. Complete HEK293 culture media (4 mL) was added to each well and cells were collected and pooled into a conical tube. Cells were pelleted at 200×g for 5 minutes and resuspended in an equal volume of complete DMEM medium. Cells were diluted to 4×10^5 cells per mL in complete HEK293 media. L-Tryptophan was added to added to give a final concentration of 200 μM. The diluted transfected cells (50 μL) or nontransfected cells (50 μL) were dispensed into wells of Greiner black 384-well assay plates (catalog #781086) containing previously diluted compounds. The plate is briefly mixed and centrifuged at 200×g for 10 seconds to collect cells at the bottom of the plate. Plates were covered and incubated for 20-24 hours at 37 degrees C. in a 5% CO2 incubator. […] The resulting fluoresence was measured in an Envision plate reader (Perkin Elmer) with a 400/25 nm excitation filter and an 510/20 nm emission filter.
The fluoresence intensity of each well was corrected for the background observed in wells with untransfected cells and was expressed as a fraction of the intensity observed in wells of IDO1 transfected cells and DMSO only. Potencies were calculated by linear least squares fit to the four parameter logistic IC50 equation.

Assay [2] has as its target T1, IDO1. In words: IDO1 Enzyme Assay. Type of assay: biochemical. The note with it: HIS-tagged IDO1, fluorescence. The procedure:
Compounds to be tested were serially diluted in ten 3-fold steps in DMSO starting from 10 mM DMSO stocks. Compound dilutions or DMSO alone were then dispensed from the dilution plate into a Greiner black 384-well assay plate (catalog #781086) using an Echo 555 acoustic liquid handler (Labcyte).
HIS-tagged IDO1 protein was recombinantly expressed in Escherichia coli using ZYP5052 autoinduction media supplemented with 500 μM delta aminolevulinic acid for 48 hours at 16 degrees Celsius. IDO1 protein was purified using Ni^2+-affinity resin and size exclusion chromatography. Purified protein was then diluted in assay buffer (50 mM Tris pH 7.0, 1% glycerol, 20 μM methylene blue, 0.05% Tween-20, 20 mM sodium ascorbate, 100 units/mL catalase to obtain a final IDO1 concentration of 40 nM. […] were dispensed to wells of the assay plate using a BioRAPTR liquid dispenser (Beckman Coulter). Assay plates containing compound and IDO1 enzyme were incubated at room temperature for 30 minutes. Afterwards, 10 μL of 400 μM tryptophan in assay buffer were added to each well of the assay plate using a BioRAPTR liquid dispenser. Plates were incubated at room temperature for 60 minutes and reactions were quenched by addition of 10 μL of 0.5 M methyl isonipecotate in dimethyl sulfoxide. Plates were sealed and incubated at 37 degrees Celsius for 4 hours or 50 degrees Celsius for 2 hours. The plates are allowed to cool and then centrifuged for 1 minute at 1000×g. The resulting fluoresence was measured in an Envision plate reader (Perkin Elmer) with a 400/25 nm excitation filter and an 510/20 nm emission filter.
Potencies were calculated by linear least squares fit to the four parameter logistic IC50 equation.

T1 sequence (P14902 whole entry): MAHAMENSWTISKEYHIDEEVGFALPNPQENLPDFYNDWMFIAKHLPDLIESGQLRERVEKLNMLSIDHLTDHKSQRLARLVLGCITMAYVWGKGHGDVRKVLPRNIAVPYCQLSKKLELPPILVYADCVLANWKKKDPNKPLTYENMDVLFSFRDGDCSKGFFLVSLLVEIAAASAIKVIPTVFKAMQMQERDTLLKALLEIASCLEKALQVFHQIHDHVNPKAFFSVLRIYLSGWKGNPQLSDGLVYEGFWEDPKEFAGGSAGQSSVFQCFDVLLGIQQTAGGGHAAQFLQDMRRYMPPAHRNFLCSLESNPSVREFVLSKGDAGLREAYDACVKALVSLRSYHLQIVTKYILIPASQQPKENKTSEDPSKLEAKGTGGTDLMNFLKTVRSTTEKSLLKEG

In the case of `CC1=NC2(CCN(c3cc(C(F)(F)F)cc4cncn34)CC2)C(=O)N1` [Example 18, 2-methyl-8-(7-(trifluoromethyl)imidazo[1,5-a]pyridin-5-yl)-1,3,8-triazaspiro[4.5]dec-1-en-4-one], on IDO1 [1], the IC50 was 1.58 µM. For the same molecule, the “IDO1 Enzyme Assay, pIC50” value on IDO1 [2] is 5.7.
For the molecule `CC(=O)N1CCC2(CC1)CCN(c1cc(C(F)(F)F)cc3cncn13)CC2` [Example 20, 1-(9-(7-(Trifluoromethyl)imidazo[1,5-a]pyridin-5-yl)-3,9-diazaspiro[5.5]undecan-3-yl)ethan-1-one], on IDO1 [1], the IC50 was 2 µM. Moreover, the “IDO1 Enzyme Assay, pIC50” value on IDO1 [2] was found to be 5.2.
With `O=C1OCCC12CCN(c1cc(C(F)(F)F)cc3cncn13)CC2` [Example 17, 8-(7-(trifluoromethyl)imidazo[1,5-a]pyridin-5-yl)-2-oxa-8-azaspiro[4.5]decan-1-one], on IDO1 [1], the IC50 is 1.58 µM. In addition, the “IDO1 Enzyme Assay, pIC50” value on IDO1 [2] was found to be 5.7.
For the molecule `O=C1NCCC12CCN(c1cc(C(F)(F)F)cc3cncn13)CC2` [Example 19, 8-(7-(trifluoromethyl)imidazo[1,5-a]pyridin-5-yl)-2,8-diazaspiro[4.5]decan-1-one], the IC50 on IDO1 [1] is 6.31 µM. Further, the “IDO1 Enzyme Assay, pIC50” value at IDO1 [2] came to 5.1.
